The source of these data is ChEMBL document CHEMBL1146429, “Stellettamide B, a new indolizidine alkaloid from a sponge of the genus Stelletta” (1997).

Active and inactive are the calls of the source. The calls are words filed in the database; no cut-off is given here.

The nature of assay [1]: Induction of cleavage of rRNA at 50 ug/mL.
A further assay concerns Candida albicans. Description: Antimicrobial activity against Candida albicans at 25 ug/mL by paper-disk method. It is filed as functional. The note with it: read-out: IZ.
Assay [2] in a line: Induction of cleavage of mRNA at 50 ug/mL.

Regarding `CC(C)=CCC[C@@H](C)/C=C/C=C(\C)C(=O)NC(=N)NCCCCNC(=N)N` [STELLETTADINE A], the result in assay [1] and in assay [2] was Active. In the assay with Candida albicans, the zone of inhibition at 25 µg/mL turned out to be 9 mm.

Regarding `CC(C)=CCC[C@@H](C)/C=C/C=C(\C)C(=O)NC[C@@H]1CC[N+]2(C)CCCC[C@H]12` (stereo partly specified) [STELLETTAMIDE B], the outcome in assay [1] and in assay [2] was Active. Besides, in the assay on Candida albicans, the zone of inhibition at 25 µg/mL turned out to be 4 mm.
